Reference: patent publication US20220265834A1, “BCL-2 PROTEIN INHIBITORS” (Recurium IP Holdings, LLC, priority 2019, published 2022)

Tests used:
Assay type in all cases: cell-based
MOLT-4 cells = assay: MOLT-4 Cell Proliferation Assay (CellTiter-Glo Luminescent Cell Viability Assay); details: Homo sapiens, 72 h incubation, read-out: MOLT-4 (nM) CTG IC50
Protocol: Cell proliferation was measured using the CellTiter-Glo® Luminescent Cell Viability Assay. The assay involved the addition of a single reagent (CellTiter-Glo® Reagent) directly to cells cultured in serum-supplemented medium. MOLT-4 cells (ATCC, CRL-1582) were cultured according to ATCC recommendations and were seeded at 50,000 cells per well.
Each compound evaluated was prepared as a DMSO stock solution (10 mM). Compounds were tested in duplicate on each plate, with a 10-point serial dilution curve (1:3 dilution). The highest compound concentration was 10 μM (final), with a 0.1% final DMSO concentration. Plates were then incubated at 37° C., 5% CO2 for 72 h, cell plates were equilibrated at rt for approximately 30 mins. An equi-volume amount of CellTiter-Glo® Reagent (100 μL) was added to each well. Plates were mixed for 2 mins on an orbital shaker to induce cell lysis and then incubated at rt for 10 mins to stabilize the luminescent signal. Luminescence was recorded using a Envision plate reader according to CellTiter-Glo protocol. IC50 of each compound was calculated using GraphPad Prism by nonlinear regression analysis.

Bcl-xL [1] = target: T1, Bcl-xL (Homo sapiens, UniProt Q07817); assay: Protein degradation assay in MOLM-13 cells (Western blot); details: for Bcl-xL degradation in MOLM-13 cells: increasing concentrations, 24 hours, FIG. 6; for Bcl-xL degradation with proteasome inhibitor MG132 in MOLM-13 cells: pretreated with 1 μM MG132 for 1 hour, then 1 μM compound, FIG. 7
Protocol: (§1) MOLT-4 (ATCC, CRL-1582) (FIGS. 4, 5) were incubated with vehicle or 100 nM concentrations of the indicated compounds for 16 hours. MOLM-13 (DSMZ, ACC554) (FIG. 6,7) cells were incubated with vehicle or increasing concentrations of the indicated compound for 24 hours. For proteasome inhibition, MOLM-13 cells were pretreated with 1 μM of MG132 for 1 hour before the addition of 1 μM of the indicated compounds. After treatment, the cells were harvested in RIPA lysis buffer supplemented with 1% Phosphatase Inhibitor and Protease Inhibitor Cocktail. An equal amount of protein (10 μg/lane) from each cell extract was resolved on a 4-12% Bis-Tris gel. Proteins were transferred using iBlot 2 Transfer Stacks. The membranes were blocked with 5% nonfat milk in TBS-T buffer (50 mM Tris-HCL, pH 7.6; 150 mM NaCl; and 0.05% Tween) and probed with primary antibodies (1:1000 dilution) overnight at 4° C. After three washes with TBS-T (10 min/wash), the membranes were incubated with an appropriate peroxidase-conjugated secondary antibody (Cell Signaling Technology, USA) for 1 hour at rt. After three washes with TBS-T, the proteins of interest were detected with ECL Western Blotting Detection Reagents and captured with an Azure imaging system. The band intensities were determined using ImageJ software and normalized to loading control β-actin or GAPDH. The primary antibodies Bcl-xL (#2762), Bcl-2 (#2872s), Mcl-1 (#5453s) and β-actin (13E5, #4970), and GAPDH (#5174) were purchased from Cell Signaling Technology.

Bcl-xL [2] = target: T1, Bcl-xL; assay: Protein degradation assay in MOLT-4 cells (Western blot); parameters: host or cells: MOLT-4; details: 100 nM compound, 16 hours, FIGS. 4 and 5
Protocol: as §1

T1 sequence (Q07817 whole entry): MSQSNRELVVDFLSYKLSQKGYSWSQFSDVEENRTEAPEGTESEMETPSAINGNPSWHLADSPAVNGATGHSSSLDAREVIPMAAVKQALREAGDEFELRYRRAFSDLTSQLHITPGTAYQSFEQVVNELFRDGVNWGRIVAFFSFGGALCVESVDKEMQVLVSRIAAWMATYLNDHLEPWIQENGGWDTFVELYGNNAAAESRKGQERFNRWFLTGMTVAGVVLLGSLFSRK

SMILES | IC50 (MOLT-4 cells) [nM] | Bcl-xL degradation in MOLT-4 cells (Bcl-xL [2]) | Bcl-xL degradation in MOLM-13 cells (Bcl-xL [1]) | Bcl-xL degradation with proteasome inhibitor MG132 in MOLM-13 cells (Bcl-xL [1])
CC1(C)CCC(c2ccc(Cl)cc2)=C(CN2CCN(c3ccc(C(=O)NS(=O)(=O)c4ccc(N[C@H](CCN5CCOCC5)CSc5ccccc5)c(S(=O)(=O)C(F)(F)F)c4)cc3)CC2)C1 [ABT-263, reference compound] | 100 to 200 |  |  | 
CC1(C)CCC(CN2CCN(c3ccc(C(=O)NS(=O)(=O)c4ccc(N[C@H](CCN5CCN(C(=O)NCCOCCOCCNc6cccc7c6C(=O)N(C6CCC(=O)NC6=O)C7=O)CC5)CSc5ccccc5)c(S(=O)(=O)C(F)(F)F)c4)cc3)CC2)=C(C23CC(C(F)F)(C2)C3)C1 (stereo partly drawn) [Example 1, 4-((R)-3-((4-(N-(4-(4-((2-(3-(difluoromethyl)bicyclo[1.1.1]pentan-1-yl)-4,4-dimethylcyclohex-1-en-1-yl)methyl)piperazin-1-yl)benzoyl)sulfamoyl)-2-((trifluoromethyl)sulfonyl)phenyl)amino)-4-(phenylthio)butyl)-N-(2-(2-(2-((2-(2,6-dioxopiperidin-3-yl)-1,3-dioxoisoindolin-4-yl)amino)ethoxy)ethoxy)ethyl)piperazine-1-carboxamide] | ≥ 200 |  |  | 
CC1(C)CCC(CN2CCN(c3ccc(C(=O)NS(=O)(=O)c4ccc(N[C@H](CCN5CCN(CCOCCOCCNc6cccc7c6C(=O)N(C6CCC(=O)NC6=O)C7=O)CC5)CSc5ccccc5)c(S(=O)(=O)C(F)(F)F)c4)cc3)CC2)=C(C23CC(C(F)F)(C2)C3)C1 (stereo partly shown) [Example 3] |  |  | can induce Bcl-xL degradation in MOLM-13 cells in a dose dependent manner | can be inhibited by proteasome inhibitor MG132
CC1(C)CCC(CN2CCN(c3ccc(C(=O)NS(=O)(=O)c4ccc(N[C@H](CCN5CCC(C(=O)NCCOCCOCCNc6cccc7c6C(=O)N(C6CCC(=O)NC6=O)C7=O)CC5)CSc5ccccc5)c(S(=O)(=O)C(F)(F)F)c4)cc3)CC2)=C(C23CC(C(F)F)(C2)C3)C1 (stereo partly drawn) [Example 5, 1-((R)-3-((4-(N-(4-(4-((2-(3-(difluoromethyl)bicyclo[1.1.1]pentan-1-yl)-4,4-dimethylcyclohex-1-en-1-yl)methyl)piperazin-1-yl)benzoyl)sulfamoyl)-2-((trifluoromethyl)sulfonyl)phenyl)amino)-4-(phenylthio)butyl)-N-(2-(2-(2-((2-(2,6-dioxopiperidin-3-yl)-1,3-dioxoisoindolin-4-yl)amino)ethoxy)ethoxy)ethyl)piperidine-4-carboxamide] | 100 to 200 | induce Bcl-xL degradation |  | 
CC1(C)CCC(CN2CCN(c3ccc(C(=O)NS(=O)(=O)c4ccc(N[C@H](CCN5CCN(CCOCCOCCOCCNc6cccc7c6C(=O)N(C6CCC(=O)NC6=O)C7=O)CC5)CSc5ccccc5)c(S(=O)(=O)C(F)(F)F)c4)cc3)CC2)=C(C23CC(C)(C2)C3)C1 (stereo partly drawn) [Example 10, 4-(4-((4,4-dimethyl-2-(3-methylbicyclo[1.1.1]pentan-1-yl)cyclohex-1-en-1-yl)methyl)piperazin-1-yl)-N-((4-(((2R)-4-(4-(2-(2-(2-(2-((2-(2,6-dioxopiperidin-3-yl)-1,3-dioxoisoindolin-4-yl)amino)ethoxy)ethoxy)ethoxy)ethyl)piperazin-1-yl)-1-(phenylthio)butan-2-yl)amino)-3-((trifluoromethyl)sulfonyl)phenyl)sulfonyl)benzamide] | ≤ 100 | induce Bcl-xL degradation |  | 

Second part, led by results:

IC50 (MOLT-4 cells) [nM] | Bcl-xL degradation in MOLT-4 cells (Bcl-xL [2]) | SMILES | Bcl-xL degradation in MOLM-13 cells (Bcl-xL [1]) | Bcl-xL degradation with proteasome inhibitor MG132 in MOLM-13 cells (Bcl-xL [1])
≤ 100 | induce Bcl-xL degradation | CC1(C)CCC(CN2CCN(c3ccc(C(=O)NS(=O)(=O)c4ccc(N[C@H](CCN5CCN(CCOCCNc6cccc7c6C(=O)N(C6CCC(=O)NC6=O)C7=O)CC5)CSc5ccccc5)c(S(=O)(=O)C(F)(F)F)c4)cc3)CC2)=C(C23CC(C(F)F)(C2)C3)C1 (stereo partly drawn) [Example 2, 4-(4-((2-(3-(Difluoromethyl)bicyclo[1.1.1]pentan-1-yl)-4,4-dimethylcyclohex-1-en-1-yl)methyl)piperazin-1-yl)-N-((4-(((2R)-4-(4-(2-(2-((2-(2,6-dioxopiperidin-3-yl)-1,3-dioxoisoindolin-4-yl)amino)ethoxy)ethyl)piperazin-1-yl)-1-(phenylthio)butan-2-yl)amino)-3-((trifluoromethyl)sulfonyl)phenyl)sulfonyl)benzamide] | can induce Bcl-xL degradation in MOLM-13 cells in a dose dependent manner | can be inhibited by proteasome inhibitor MG132
≤ 100 | induce Bcl-xL degradation | CC1(C)CCC(CN2CCN(c3ccc(C(=O)NS(=O)(=O)c4ccc(N[C@H](CCN5CCN(CCOCCOCCOCCNc6cccc7c6C(=O)N(C6CCC(=O)NC6=O)C7=O)CC5)CSc5ccccc5)c(S(=O)(=O)C(F)(F)F)c4)cc3)CC2)=C(C23CC(C(F)F)(C2)C3)C1 (stereo partly drawn) [Example 4, 4-(4-((2-(3-(difluoromethyl)bicyclo[1.1.1]pentan-1-yl)-4,4-dimethylcyclohex-1-en-1-yl)methyl)piperazin-1-yl)-N-((4-(((2R)-4-(4-(2-(2-(2-(2-((2-(2,6-dioxopiperidin-3-yl)-1,3-dioxoisoindolin-4-yl)amino)ethoxy)ethoxy)ethoxy)ethyl)piperazin-1-yl)-1-(phenylthio)butan-2-yl)amino)-3-((trifluoromethyl)sulfonyl)phenyl)sulfonyl)benzamide] |  | can be inhibited by proteasome inhibitor MG132
≤ 100 | induce Bcl-xL degradation | CC1(C)CCC(CN2CCN(c3ccc(C(=O)NS(=O)(=O)c4ccc(N[C@H](CCN5CCN(CCOCCNc6ccc7c(c6)C(=O)N(C6CCC(=O)NC6=O)C7=O)CC5)CSc5ccccc5)c(S(=O)(=O)C(F)(F)F)c4)cc3)CC2)=C(C23CC(C(F)F)(C2)C3)C1 (stereo partly drawn) [Example 6, 4-(4-((2-(3-(Difluoromethyl)bicyclo[1.1.1]pentan-1-yl)-4,4-dimethylcyclohex-1-en-1-yl)methyl)piperazin-1-yl)-N-((4-(((2R)-4-(4-(2-(2-((2-(2,6-dioxopiperidin-3-yl)-1,3-dioxoisoindolin-5-yl)amino)ethoxy)ethyl)piperazin-1-yl)-1-(phenylthio)butan-2-yl)amino)-3-((trifluoromethyl)sulfonyl)phenyl)sulfonyl)benzamide] |  | 
≤ 100 | induce Bcl-xL degradation | CC1(C)CCC(CN2CCN(c3ccc(C(=O)NS(=O)(=O)c4ccc(N[C@H](CCN5CCN(CCOCCNc6cccc7c6C(=O)N(C6CCC(=O)NC6=O)C7=O)CC5)CSc5ccccc5)c(S(=O)(=O)C(F)(F)F)c4)cc3)CC2)=C(C23CC(C)(C2)C3)C1 (stereo partly drawn) [Example 9, 4-(4-((4,4-Dimethyl-2-(3-methylbicyclo[1.1.1]pentan-1-yl)cyclohex-1-en-1-yl)methyl)piperazin-1-yl)-N-((4-(((2R)-4-(4-(2-(2-((2-(2,6-dioxopiperidin-3-yl)-1,3-dioxoisoindolin-4-yl)amino)ethoxy)ethyl)piperazin-1-yl)-1-(phenylthio)butan-2-yl)amino)-3-((trifluoromethyl)sulfonyl)phenyl)sulfonyl)benzamide] |  | 
